Source: patent US10767179B2, “MicroRNA composition for the treatment of neuroblastoma” (THE BOARD OF REGENTS OF THE UNIVERSITY OF TEXAS SYSTEM, priority 2014, dated 2020)

What was measured:
Type in all cases: cell-based
CEBPA = assay: mRNA expression profiling (Illumina microarray); conditions: change of expression induced by miRNA overexpression
Description: (§1) Mrna And Mirna Expression. Total RNA was isolated as previously described (Du et al., Mol Cancer Res, 2009, 7(8):1234-43). mRNA expression profiling was done using the Illumina mRNA WG-6 v3 microarray platform. miRNA expression was measured by qRT-PCR using TaqMan microRNA Assays (Life Technologies) with average expression of RNU44 RNA, RNU19 RNA, GAPDH mRNA and 18s rRNA used as controls for normalizing RNA loading.

CDK4 [1] = assay: mRNA expression profiling (Illumina microarray); conditions: change of expression induced by miRNA overexpression
Description: as §1

STAT3 = assay: mRNA expression profiling (Illumina microarray); conditions: change of expression induced by miRNA overexpression
Description: as §1

THRB = assay: mRNA expression profiling (Illumina microarray); conditions: change of expression induced by miRNA overexpression
Description: as §1

SHC3 = assay: mRNA expression profiling (Illumina microarray); conditions: change of expression induced by miRNA overexpression
Description: as §1

PML = assay: mRNA expression profiling (Illumina microarray); conditions: change of expression induced by miRNA overexpression
Description: as §1

RARG = assay: mRNA expression profiling (Illumina microarray); conditions: change of expression induced by miRNA overexpression
Description: as §1

CDK4 [2] = assay: Western blot of endogenous CDK4 protein; conditions: miRNA overexpression, 4 days
From the text: FIG. 7A-7F. Validation of CDK4 and STAT3 as direct targets that mediate the differentiation-inducing function of miR-506-3p and miR-124-3p. (A) The predicted interactions between miR-506-3p/miR-124-3p and the target sites in the 3′UTR of STAT3 and CDK4 rnRNAs. The seed sequences are underlined. (SEQ ID NOS: 1, 2, 18, 19, 20, 21) (B-C) Validation of the target sites of miR-506-3p and miR-124-3p in the 3′UTRs of (B) CDK4 and (C) STAT3 by luciferase reporter assay. BE(2)-C cells were co-transfected with the indicated vectors and miRNA mimics or control oligo. After 72 h of transfection, cells were lysed and luciferase activity was measured. […] Cells were transfected as above for 4 days, and protein levels were measured by Western blots. […] Cells were transfected with the indicated oligos, and neurite lengths were measured as above after 4 days transfection. Shown are representative cell images analyzed to define neurites and cell body areas (G) and quantification of neurite length under the indicated treatment conditions (H). **, p<0.01; *** , p<0.001; ****, p<0.0001.
Western Blots. […] Protein concentration was determined using the Pierce BCA assay (Thermo Fisher Scientific). […] Bound antibodies were detected with secondary antibodies conjugated with horseradish peroxidase (HRP) visualized by enhanced chemiluminescent (ECL) substrate (Pierce).

[3] = test system: additional neuroblastoma cell lines with different genetic backgrounds; assay: Neurite outgrowth in multiple neuroblastoma cell lines; conditions: 25 nM miRNA mimic, 5 days, among the top 5 miRNAs
Description: FIG. 3A-3G. Characterization of the effect of the top 5 neurite-inducing miRNA mimics on cell differentiation and growth in multiple neuroblastoma cell lines. (A-B) Effects of the identified top 5 miRNA mimics on neurite outgrowth. BE(2)-C cells were transfected with 25 nM miRNA mimics or control for 4 days, and relative neurite lengths were quantified as above. Shown are representative cell images analyzed to define neurite and cell body areas (A) and neurite length quantifications (B). (C) Effects of the 5 miRNA mimics on expression of differentiation markers. BE(2)-C cells were transfected with 25 nM of the indicated miRNA mimics or control, and proteins levels were examined after 4 days. (D) Effects of the 5 miRNA mimics on cell proliferation rate. (E) Effect of the 5 miRNAs on neurite outgrowth in multiple cell lines. Cells were transfected with 25 nM miRNA mimics or control, and neurite lengths were quantified as above after 5 days. (F-G) Effects of miR-506-3p (F) and miR-124-3p (G) mimics on expression of differentiation markers in multiple cell lines. *, p<0.05; **, p<0.01; ***, p<0.001; **** , p<0.0001.
Detection and Quantification of Neurite Outgrowth. Cells were plated and treated in 96-well plates. […] The neurite lengths associated with each treatment were calculated using the neurite definition defined for each specific cell line using the NeuroTrack system (Essen BioScience).

BE(2)-C cells = assay: High-content screen: detection and quantification of neurite outgrowth; design: key: neurite length normalized to the mean of its plate; conditions: 25 nM miRNA mimic, 4 days transfection, normalized to plate mean
Description: FIG. 2A-2C. HCS screening of miRNA mimics identifies miRNAs that induce neurite outgrowth in BE(2)-C cells. (A-B) 2,500 cells were reverse-transfected with 25 nM miRNA mimics in 96-well plates. After 4 days transfection, relative neurite lengths were quantified as above. (A) The distribution of post-normalized neurite length measurements (grey histogram) for individual miRNA mimics from the screen and the fitted Gamma distribution curve (␣=3.27, ┘=0.444) (B) Correlation between two independent neurite length measurements for one library plate. Cells were transfected with 25 nM mimics in two independent 96-well plates. Normalized neurite lengths were measured as above. Correlation of neurite length between the two plates was analyzed using two-tailed Pearson Correlation with p<0.05 considered significant. (C) The distribution of the neurite lengths for untreated BE(2)-C cells. 2,500 Cells were plated into each well in 96 well plates. After 4 days of culture, neurite lengths were analyzed as above. Shown are the neurite length distribution histogram, the empirical density curve, and the fitted Gamma distribution curve (␣=30.23, ␣=0.033).
Detection and Quantification of Neurite Outgrowth. Cells were plated and treated in 96-well plates. For detecting neurite outgrowth, cells were placed into ZOOM IncuCyte Imaging System (Essen BioScience) and cell images were taken under 20× microscopic magnification. For detecting neurite outgrowth in a time-dependent manner, cell images were taken every 6 h. The neurite lengths associated with each treatment were calculated using the neurite definition defined for each specific cell line using the NeuroTrack system (Essen BioScience).
Analysis of HCS Data. The relative neurite length associated with cells in each well on the screen plates was determined as above. In order to allow for plate-to-plate comparison, neurite length associated with each well in each plate was first internally normalized to the mean of the corresponding plate, and multiple screen plates were then aggregated together to generate the neurite length distribution. The data were then further analyzed to determine the distribution of the unaffected cells as described below, and to identify differentiation-inducing miRNA mimics.
Statistical Analysis. For HCS, p-value for neurite length associated with each miRNA mimic was evaluated by assuming the distribution of neurite lengths follows Gamma distribution, and false Discovery Rate (FDR) was determined by Benjamini-Hochberg correction method for multiple tests (Benjamin, Journal of the Royal Statistical Society Series B (Methodological), 1995, 57(1):12). […] For all other conditions, the statistical significance for each treatment was determined using t-test by comparing the treatment group with control, with p<0.05 considered statistically significant.

Substance: hsa-miR-506-3p: miRNA mimic (Dharmacon), mature sequence UAAGGCACCCUUCUGAGUAGA (SEQ ID NO: 1) (UAAGGCACCCUUCUGAGUAGA(1); as printed in the source, key not given here)
- Gene expression CEBPA (CEBPA): 0.88
- Gene expression CDK4 (CDK4 [1]): 0.39
- Gene expression STAT3 (STAT3): 0.75
- Gene expression THRB (THRB): 1.04
- Gene expression SHC3 (SHC3): 1.08
- Gene expression PML (PML): 1.01
- Gene expression RARG (RARG): 1.02
- Endogenous CDK4 protein expression level (CDK4 [2]): down-regulate
- Effect on neurite growth in multiple cell lines [3]: most potent effect on neurite growth
- Neurite length (mean ± SD) (BE(2)-C cells): 10.04 ± 3.41
